From patent publication US7935532B2, “DWF4 polynucleotides, polypeptides and uses thereof” (Arizona Board of Regents for and on behalf of Arizona State …, priority 1999, dated 2011)

Legend:
dwf4 seedlings [1] = assay: Feeding of BR biosynthetic intermediates to dwf4 seedlings in liquid media (rescue, dose-response); assay type: in vivo, Arabidopsis thaliana; conditions: for rescue of the light-grown dwf4 phenotype: liquid media
Method: In view of the results described above, we hypothesized that DWF4 mediates one or more of several steroid hydroxylation steps in the BR biosynthetic pathway. To test this, dwf4 was grown on all of the available biosynthetic intermediates in the BR biosynthetic pathways and examined to ascertain which intermediates could rescue the dwarf phenotype. In addition to the intermediates belonging to the early C-6 oxidation and late C-6 oxidation pathways (Choi et al. (1997), supra), 22α-hydroxycampesterol (22-OHCR), 6α-hydroxycastasterone (6-OHCT) (Takatsuto et al. (1997) J. Chem. Res. (synop.) 11:418-419), and […] (S. Takatsuto, T. Watanabe, T. Noguchi, and S. Fujioka, unpublished data) were synthesized and tested.
Germinated seedlings were transferred to media supplemented with one of the intermediates or BL to pinpoint the step catalyzed by DWF4. […] In addition, the rescued seedlings were less green than the dwarfs. These experiments were conducted in liquid media. Feeding experiments performed in the dark yielded similar results.
However, on CT the overall morphology of dwf4 was essentially rescued to wild-type phenotype at 3×10^−7 M and higher, whereas with 6-deoxoCT, rescue occurred with as little as 10^−7 M and may have even been inhibitory at higher concentrations. Of particular interest is the more dramatic response of the epicotyls versus the smaller response of the hypocotyls to CT. This same phenomenon was true for seedlings treated with >10^−7 M 6-deoxoCT.
A higher concentration of CT for dark-grown seedlings, compared with light-grown seedlings, 3×10^−6 M (FIG. 5B), was required to convert the hypocotyl to a length similar to that of the wild type.

6-week-old dwf4 plants = assay: Treatment of soil-grown mature dwf4 plants with BR intermediates and BL (pedicel elongation); assay type: in vivo, Arabidopsis thaliana
Method: To determine whether the results of the seedling feeding experiments could be applicable to soil-grown mature plants, 6-week-old dwf4 plants were treated with BR intermediates and BL. Concentrations of applied intermediates were adjusted empirically to optimize responses. Consistent with the results obtained from the seedlings experiments, only 22α-hydroxylated compounds can rescue the dwf4 phenotype. The elongation response was only observed in the young tissues of the inflorescence, regardless of whether the BRs were applied locally or sprayed over the entire plant. In contrast to the striking elongation of the peduncles and pedicels, fertility was not restored by BR treatment. The sterility in dwf4 is hypothesized to be mechanical, which means that the filaments are shorter than the carpels such that the pollen is shed onto the ovary walls rather than onto the stigmatic surface. In fact, if dwf4 plants are hand pollinated using […], fertility increases.

dwf8-1 = assay: Feeding of 22-OHCR to dwf8-1 dwarf mutant; assay type: in vivo, Arabidopsis thaliana; conditions: unpublished data
dwf4 seedlings [2] = assay: Brassinolide response of seedlings in liquid culture (hypocotyl length); assay type: in vivo, Arabidopsis thaliana; conditions: liquid medium, 10^−6 M BL
Method: Gibberellic acid (GA) response was assayed on plants grown individually in 5.7-cm pots. Once inflorescences reached 1 to 2 mm in height, they were sprayed weekly with 1 mM GA3 (Sigma). Control plants were sprayed with water. One week after the third spraying, plants were collected, and the length of the main stem was measured between the top of the rosette and the base of the most distal pedicel; 13 to 18 plants of each line were measured per treatment. Auxin response was tested by growing seedlings for 10 days under 16 hr of light on vertically oriented agar plates containing various concentrations of 2,4-D (Gibco, Grand Island, N.Y.). Genetic interaction with the hy2 mutation was tested by growing seedlings under continuous light for 7 days. Brassinolide (BL) response was determined in liquid culture, as described by Clouse et al. (1993) supra, except that three or four seedlings were grown in each well of a 24-well culture plate for 7 days. Measurements were taken for 10 to 20 seedlings for each genotype and condition, under a dissection microscope fitted with an ocular micrometer.
In the course of our studies, we prepared a genomic library from dwf4-1, from which we isolated a clone in which a fragment of T-DNA interrupts a gene encoding a putative cytochrome P450 steroid hydroxylase.

rice lamina = conditions: Fujioka et al. (1995b); cited from earlier work

Structure (SMILES): CC(C)[C@H](C)C[C@H](O)[C@@H](C)[C@H]1CC[C@H]2[C@@H]3CC=C4C[C@@H](O)CC[C@]4(C)[C@H]3CC[C@]12C [22-OHCR, 22α-hydroxycampesterol]
- rescue of the light-grown dwf4 phenotype (dwf4 seedlings [1]; light-grown seedlings): rescued
- effectiveness in rescuing the dwf4 phenotype, light versus dark (dwf4 seedlings [1]; unpublished data): more effective in the light
- pedicel elongation response (6-week-old dwf4 plants; 22-OHCR 10^−5 M): dramatic elongation response
- rescue of dwf8-1 dwarf mutant (dwf8-1): not rescued

Structure (SMILES): CC(C)[C@H](C)[C@@H](O)[C@H](O)[C@@H](C)[C@H]1CC[C@H]2[C@@H]3COC(=O)[C@H]4C[C@H](O)[C@H](O)C[C@]4(C)[C@H]3CC[C@]12C [BL, 2α, 3α, 22(R), 23(R)-tetrahydroxy-24(S)-methyl-B-homo-7-oxa-5α-cholestan-6-one]
- dwf4 hypocotyl height (dwf4 seedlings [2]): restored to wild-type height
- bioactivity in dwf4 pedicel elongation (6-week-old dwf4 plants; BL 10^−7 M): highest bioactivity
- degree of pedicel elongation response (6-week-old dwf4 plants; BL 10^−7 M versus precursors): approximately the same degree of response as its precursor compounds at 10^−6 M

Structure (SMILES): CC(C)[C@H](C)C[C@H](O)[C@@H](C)[C@H]1CC[C@H]2[C@@H]3CC(=O)[C@H]4C[C@@H](O)CC[C@]4(C)[C@H]3CC[C@]12C [CT, Cathasterone]
- concentration required to convert the dwf4 hypocotyl to a length similar to wild type (dwf4 seedlings [1]; dark-grown seedlings): 3 µM
- concentration at which dwf4 overall morphology is rescued to wild-type phenotype (dwf4 seedlings [1]; light-grown seedlings, dose-response): ≥ 3×10^−7 M
- rescue of the light-grown dwf4 phenotype (dwf4 seedlings [1]; light-grown seedlings): rescued
- activity relative to 6-oxoCN (rice lamina): ~500 times
